Source: patent US20200231638A1, “STABILIZED ANTI-MICROBIAL PEPTIDES” (priority 2015, published 2020)
≈ marks a conversion by molar mass, not a printed value. Bridge positions count the residues as written; N and C are the ends. Square brackets hold non-standard residues; d marks the D form. Ends that are not written are not given here. Peptide text beside a SMILES is read from it. R8 = C=CCCCCCC[C@@](C)(N)C(=O)O; S5 = C=CCCC[C@](C)(N)C(=O)O; Nle = CCCC[C@H](N)C(=O)O

Tests used:
S. marcescens = type: cell-based
Experimental: Antimicrobial Activity Assay:
The following microbroth dilution protocol was adapted to determine the minimum inhibitory concentration (MIC) of each peptide. First, Mueller-Hinton broth (MHB) was passed through an anion exchange column to remove polyanionic species and generate refined MHB. […] Briefly, bacterial cells was grown overnight in refined MHB at 37° C. and then diluted and allowed to grow again for several hours. Serial dilutions of peptide stocks in water (10 μl) were prepared using clear round-bottom polypropylene 96-well plates. Then 90 μl of bacteria in refined MHB was added to give a final inoculum of 5×10^5 CFU/ml. The plates were then covered with porous tape to reduce evaporation, and incubated for 20-24 hours at 37° C. The MIC is the minimum peptide concentration at which no visible growth was observed.

human red blood cells = type: cell-based; settings: for % Hemolysis at 25 μg/ml: red cells of human, 1 h
Method in brief: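 Washed human RBCs as 1% (v/v) suspension in phosphate-buffered saline incubated 1 h at 37° C with serially diluted peptides. Hemoglobin release in supernatant measured spectrophotometrically (570 nm), % hemolysis relative to untreated and 1% Triton-X100 controls; MHC defined as concentration giving less than 1% release.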

B. cereus = type: cell-based, Bacillus cereus
Method in brief: (§1)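 Broth microdilution; anion-exchange-refined MHB; overnight culture at 37° C, diluted and regrown; inoculum 5×10^5 CFU/ml final; peptides serially diluted in water; 20-24 h, 37° C; MIC = lowest concentration without visible growth.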

E. coli = type: cell-based, Escherichia coli
Method in brief: as §1

S. aureus = type: cell-based, Staphylococcus aureus
Method in brief: as §1

P. aeruginosa = type: cell-based, Pseudomonas aeruginosa
Method in brief: as §1

Molecule | MIC S. marcescens (S. marcescens) | hemolytic activity (in words) (human red blood cells) | MIC B. cereus (B. cereus) | MIC E. coli (E. coli) | MIC S. aureus (S. aureus) | MIC P. aeruginosa (P. aeruginosa) | % Hemolysis at 25 μg/ml (human red blood cells)
CCCC[C@H](NC(=O)[C@@H](NC(=O)[C@H](CCC(=O)O)NC(=O)[C@H](C)NC(=O)[C@]1(C)CCCC=CCCCCCC[C@@](C)(NC(=O)[C@H](C)NC(=O)[C@H](C)NC(=O)[C@H](Cc2c[nH]cn2)NC(=O)[C@H](CC(C)C)NC(=O)[C@H](Cc2ccccc2)NC(=O)[C@H](CCCCN)NC(=O)CNC(=O)[C@@H](NC(=O)CN)[C@@H](C)CC)C(=O)N[C@@H](CCCCN)C(=O)N[C@@H](Cc2ccccc2)C(=O)N[C@@H](C)C(=O)N[C@@H](CCCCN)C(=O)N[C@@H](C)C(=O)N[C@@H](Cc2ccccc2)C(=O)N1)[C@@H](C)CC)C(=O)N[C@@H](CC(N)=O)C(=O)N[C@@H](CO)C(N)=O [MagStap 4] (H-GIGKFLHAA[R8]KFAKAF[S5]AEI[Nle]NS-NH2; staple 10-17; N-terminus assumed) | >50 µg/mL | highest hemolytic activity | 6.2 µg/mL (≈ 2.46 µM) | 12.5 µg/mL (≈ 4.95 µM) |  |  | 
CCCC[C@H](NC(=O)[C@@H](NC(=O)[C@H](CCC(=O)O)NC(=O)[C@]1(C)CCCC=CCCCCCC[C@@](C)(NC(=O)[C@H](CCCCN)NC(=O)[C@H](C)NC(=O)[C@H](C)NC(=O)[C@H](Cc2c[nH]cn2)NC(=O)[C@H](CC(C)C)NC(=O)[C@H](Cc2ccccc2)NC(=O)[C@H](CCCCN)NC(=O)CNC(=O)[C@@H](NC(=O)CN)[C@@H](C)CC)C(=O)N[C@@H](Cc2ccccc2)C(=O)N[C@@H](C)C(=O)N[C@@H](CCCCN)C(=O)N[C@@H](C)C(=O)N[C@@H](Cc2ccccc2)C(=O)N[C@@H](C(C)C)C(=O)N1)[C@@H](C)CC)C(=O)N[C@@H](CC(N)=O)C(=O)N[C@@H](CO)C(N)=O [MagStap 5] (H-GIGKFLHAAK[R8]FAKAFV[S5]EI[Nle]NS-NH2; staple 11-18; N-terminus assumed) | >50 µg/mL | lowest hemolytic activity | 12.5 µg/mL (≈ 4.9 µM) | 12.5 µg/mL (≈ 4.9 µM) |  |  | 
CCCC[C@H](NC(=O)[C@@H](NC(=O)[C@]1(C)CCCC=CCCCCCC[C@@](C)(NC(=O)[C@H](CCCCN)NC(=O)[C@H](CCCCN)NC(=O)[C@H](C)NC(=O)[C@H](C)NC(=O)[C@H](Cc2c[nH]cn2)NC(=O)[C@H](CC(C)C)NC(=O)[C@H](Cc2ccccc2)NC(=O)[C@H](CCCCN)NC(=O)CNC(=O)[C@@H](NC(=O)CN)[C@@H](C)CC)C(=O)N[C@@H](C)C(=O)N[C@@H](CCCCN)C(=O)N[C@@H](C)C(=O)N[C@@H](Cc2ccccc2)C(=O)N[C@@H](C(C)C)C(=O)N[C@@H](C)C(=O)N1)[C@@H](C)CC)C(=O)N[C@@H](CC(N)=O)C(=O)N[C@@H](CO)C(N)=O [MagStap 6] (H-GIGKFLHAAKK[R8]AKAFVA[S5]I[Nle]NS-NH2; staple 12-19; N-terminus assumed) | >50 µg/mL |  | 3.1 µg/mL (≈ 1.25 µM) | 3.1 µg/mL (≈ 1.25 µM) |  |  | 
CCCC[C@H](NC(=O)[C@]1(C)CCCC=CCCCCCC[C@@](C)(NC(=O)[C@H](Cc2ccccc2)NC(=O)[C@H](CCCCN)NC(=O)[C@H](CCCCN)NC(=O)[C@H](C)NC(=O)[C@H](C)NC(=O)[C@H](Cc2c[nH]cn2)NC(=O)[C@H](CC(C)C)NC(=O)[C@H](Cc2ccccc2)NC(=O)[C@H](CCCCN)NC(=O)CNC(=O)[C@@H](NC(=O)CN)[C@@H](C)CC)C(=O)N[C@@H](CCCCN)C(=O)N[C@@H](C)C(=O)N[C@@H](Cc2ccccc2)C(=O)N[C@@H](C(C)C)C(=O)N[C@@H](C)C(=O)N[C@@H](CCC(=O)O)C(=O)N1)C(=O)N[C@@H](CC(N)=O)C(=O)N[C@@H](CO)C(N)=O [MagStap 7] (H-GIGKFLHAAKKF[R8]KAFVAE[S5][Nle]NS-NH2; staple 13-20; N-terminus assumed) | >50 µg/mL |  | 6.2 µg/mL (≈ 2.41 µM) | 6.2 µg/mL (≈ 2.41 µM) |  |  | 
CC[C@H](C)[C@H](NC(=O)CN)C(=O)NCC(=O)N[C@@H](CCCCN)C(=O)N[C@@H](Cc1ccccc1)C(=O)N[C@@H](CC(C)C)C(=O)N[C@@H](CCCCN)C(=O)N[C@@H](CCCCN)C(=O)N[C@@H](C)C(=O)N[C@@H](CCCCN)C(=O)N[C@]1(C)CCCCCCC(O)C(O)CCC[C@@](C)(C(=O)N[C@H](C(=O)N[C@@H](CC(C)C)C(=O)N[C@@H](CCCCN)C(=O)N[C@@H](CCCCN)C(N)=O)[C@@H](C)CC)NC(=O)[C@H](C(C)C)NC(=O)[C@H](Cc2ccccc2)NC(=O)[C@H](C)NC(=O)[C@H](CCCCN)NC(=O)CNC(=O)[C@H](Cc2ccccc2)NC1=O (stereo partly drawn) [PexDiol 5] | >50 µg/mL | significant hemolytic activity | 3.1 µg/mL (≈ 1.22 µM) | 1.6 µg/mL (≈ 0.628 µM) | 3.1 µg/mL (≈ 1.22 µM) | 1.6 µg/mL (≈ 0.628 µM) | 
CC[C@H](C)[C@H](NC(=O)CN)C(=O)NCC(=O)N[C@@H](CCCCN)C(=O)N[C@@H](Cc1ccccc1)C(=O)N[C@@H](CC(C)C)C(=O)N[C@@H](CCCCN)C(=O)N[C@]1(C)CCCCCCC=CCCC[C@@](C)(C(=O)N[C@@H](Cc2ccccc2)C(=O)N[C@H](C(=O)N[C@@H](CCCCN)C(=O)N[C@H](C(=O)N[C@@H](CC(C)C)C(=O)N[C@@H](CCCCN)C(=O)N[C@@H](CCCCN)C(N)=O)[C@@H](C)CC)C(C)C)NC(=O)[C@H](CCCCN)NC(=O)CNC(=O)[C@H](Cc2ccccc2)NC(=O)[C@H](CCCCN)NC(=O)[C@H](CCCCN)NC(=O)[C@H](C)NC1=O [PexStap 2] (H-GIGKFLK[R8]AKKFGK[S5]FVKILKK-NH2; staple 8-15; N-terminus assumed) | >50 µg/mL |  | 3.1 µg/mL (≈ 1.21 µM) | 3.1 µg/mL (≈ 1.21 µM) | 3.1 µg/mL (≈ 1.21 µM) | 3.1 µg/mL (≈ 1.21 µM) | 
CC[C@H](C)[C@H](NC(=O)CN)C(=O)NCC(=O)N[C@@H](CCCCN)C(=O)N[C@@H](Cc1ccccc1)C(=O)N[C@@H](CC(C)C)C(=O)N[C@@H](CCCCN)C(=O)N[C@@H](CCCCN)C(=O)N[C@@H](C)C(=O)N[C@@H](CCCCN)C(=O)N[C@@H](CCCCN)C(=O)N[C@]1(C)CCCCCCC=CCCC[C@@](C)(C(=O)N[C@@H](CC(C)C)C(=O)N[C@@H](CCCCN)C(=O)N[C@@H](CCCCN)C(N)=O)NC(=O)[C@H](CCCCN)NC(=O)[C@H](C(C)C)NC(=O)[C@H](Cc2ccccc2)NC(=O)[C@H](C)NC(=O)[C@H](CCCCN)NC(=O)CNC1=O [PexStap 6] (H-GIGKFLKKAKK[R8]GKAFVK[S5]LKK-NH2; staple 12-19; N-terminus assumed) | >50 µg/mL |  | 6.3 µg/mL (≈ 2.51 µM) | 3.1 µg/mL (≈ 1.24 µM) | 3.1 µg/mL (≈ 1.24 µM) | 1.6 µg/mL (≈ 0.638 µM) | 
CC(C)C[C@H](NC(=O)[C@H](Cc1ccc(O)cc1)NC(=O)[C@H](Cc1c[nH]cn1)NC(=O)[C@@H](NC(=O)[C@H](CC(C)C)NC(=O)[C@]1(C)CCCC=CCCC[C@](C)(NC(=O)[C@H](Cc2c[nH]cn2)NC(=O)[C@H](CCCCN)NC(=O)CNC(=O)[C@@H](NC(=O)[C@H](Cc2c[nH]cn2)NC(=O)[C@H](C)NC(=O)[C@H](CCCCN)NC(=O)[C@H](CCCCN)NC(=O)[C@H](CCCCN)NC(=O)[C@]2(C)CCCC=CCCC[C@](C)(NC(=O)CN)C(=O)NCC(=O)N[C@@H](CO)C(=O)N[C@@H](Cc3ccccc3)C(=O)N2)C(C)C)C(=O)NCC(=O)N[C@@H](CCCCN)C(=O)N[C@@H](C)C(=O)N1)[C@@H](C)O)C(N)=O [Pleu(i + 4)1, 15(A9K)] (H-G[S5]GSF[S5]KKKAHVGKH[S5]GKA[S5]LTHYL-NH2; staple 2-6, 16-20; N-terminus assumed) |  |  | 3.1 µg/mL | 1.6 µg/mL | 3.1 µg/mL | 1.6 µg/mL | 16.3%
CC(C)C[C@H](NC(=O)[C@H](Cc1ccc(O)cc1)NC(=O)[C@H](Cc1c[nH]cn1)NC(=O)[C@@H](NC(=O)[C@H](CC(C)C)NC(=O)[C@]1(C)CCCC=CCCC[C@](C)(NC(=O)[C@H](Cc2c[nH]cn2)NC(=O)[C@H](CCCCN)NC(=O)CNC(=O)[C@@H](NC(=O)[C@H](Cc2c[nH]cn2)NC(=O)[C@H](C)NC(=O)[C@H](C)NC(=O)[C@H](CCCCN)NC(=O)[C@H](CCCCN)NC(=O)[C@]2(C)CCCC=CCCC[C@](C)(NC(=O)CN)C(=O)NCC(=O)N[C@@H](CO)C(=O)N[C@@H](Cc3ccccc3)C(=O)N2)C(C)C)C(=O)NCC(=O)N[C@@H](CCCCN)C(=O)N[C@@H](C)C(=O)N1)[C@@H](C)O)C(N)=O [Pleu(i + 4)1, 15] (H-G[S5]GSF[S5]KKAAHVGKH[S5]GKA[S5]LTHYL-NH2; staple 2-6, 16-20; N-terminus assumed) |  |  | 3.1 µg/mL | 1.6 µg/mL | 1.6 µg/mL | 1.6 µg/mL | 88.2%
GIGKFLKKAKKFGKAFVKILKK-NH2 [Pexiganan, reference compound] | >50 µg/mL | no hemolysis | 3.1 µg/mL | 3.3 µg/mL | 6.3 µg/mL | 1.6 µg/mL | 
GWGSFFKKAAHVGKHVGKAALTHYL-NH2 [Pleurocidin-NH2, reference compound] |  |  | 6.2 µg/mL | 3.1 µg/mL | 6.2 µg/mL | 3.1 µg/mL | 0.5%
